# Test results from ChEMBL document CHEMBL1201862, “PubChem BioAssay data set” (2004).
#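 Values below derive from 48-hour exposures of cells grown in 96-well plates, with endpoints linearly interpolated between the two concentrations bracketing the appropriate inhibition level. GI50 = concentration required for 50% inhibition of growth.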 Activity calls are given as the source filed them. Cut-off read from the data, not from the text of the source: active = GI50 up to about 1.1 µM and inactive = higher.
# Legend:
# Assay in all cases: inhibition of tumour cell growth, NCI panel, 48 h
# A498 = test system: A498
# KM12 = test system: KM12
# SW-620 = test system: SW-620
# M14 = test system: M14
# HT-29 = test system: HT-29
# HOP-92 = test system: HOP-92
# NCI-H226 = test system: NCI-H226
# K562 = test system: K562
# RXF 393 = test system: RXF 393
# MCF7 = test system: MCF7
# HCT-116 = test system: HCT-116
# Malme-3M = test system: Malme-3M
# HCC 2998 = test system: HCC 2998
# A549 = test system: A549
# SF-268 = test system: SF-268
# Hs-578T = test system: Hs-578T
# NCI/ADR-RES = test system: NCI/ADR-RES
# MOLT-4 = test system: MOLT-4
# RPMI-8226 = test system: RPMI-8226
# SNB-19 = test system: SNB-19
# IGROV-1 = test system: IGROV-1
# SNB-75 = test system: SNB-75
# HOP-62 = test system: HOP-62
# DU-145 = test system: DU-145
# SF-295 = test system: SF-295
# CCRF-CEM = test system: CCRF-CEM
# SK-MEL-2 = test system: SK-MEL-2
# SR = test system: SR
# ACHN = test system: ACHN
# MDA-MB-231 = test system: MDA-MB-231
# BT-549 = test system: BT-549
# UACC-62 = test system: UACC-62
# SK-MEL-28 = test system: SK-MEL-28
# U-251 = test system: U-251
# NCI-H522 = test system: NCI-H522
# NCI-H23 = test system: NCI-H23
# OVCAR-8 = test system: OVCAR-8
# LOX IMVI = test system: LOX IMVI
# PC-3 = test system: PC-3
# OVCAR-3 = test system: OVCAR-3
# UACC-257 = test system: UACC-257
# HL-60 = test system: HL-60
# UO-31 = test system: UO-31
# MDA-MB-435 = test system: MDA-MB-435
# OVCAR-4 = test system: OVCAR-4
# COLO 205 = test system: COLO 205
# T47D = test system: T47D
# NCI-H460 = test system: NCI-H460
# EKVX = test system: EKVX
# SK-MEL-5 = test system: SK-MEL-5
# MDA-N = test system: MDA-N
# OVCAR-5 = test system: OVCAR-5
# HCT-15 = test system: HCT-15
# TK-10 = test system: TK-10
# SN12C = test system: SN12C
# 786-0 = test system: 786-0
# CAKI-1 = test system: CAKI-1
# SF-539 = test system: SF-539
compound,measurement,setting,value
CCCCON1C[C@@H](O)C(O)[C@@H](O)C1 (stereo partly drawn),GI50,A498,> 100 µM (inactive)
same,GI50,KM12,> 100 µM (inactive)
same,GI50,SW-620,> 100 µM (inactive)
same,GI50,M14,> 100 µM (inactive)
same,GI50,HT-29,> 100 µM (inactive)
same,GI50,HOP-92,> 100 µM (inactive)
same,GI50,NCI-H226,> 100 µM (inactive)
same,GI50,K562,> 100 µM (inactive)
same,GI50,RXF 393,> 100 µM (inactive)
same,GI50,MCF7,> 100 µM (inactive)
same,GI50,HCT-116,> 100 µM (inactive)
same,GI50,Malme-3M,> 100 µM (inactive)
same,GI50,HCC 2998,> 100 µM (inactive)
same,GI50,A549,> 100 µM (inactive)
same,GI50,SF-268,> 100 µM (inactive)
same,GI50,Hs-578T,> 100 µM (inactive)
same,GI50,NCI/ADR-RES,> 100 µM (inactive)
same,GI50,MOLT-4,> 100 µM (inactive)
same,GI50,RPMI-8226,> 100 µM (inactive)
same,GI50,SNB-19,> 100 µM (inactive)
same,GI50,IGROV-1,> 100 µM (inactive)
same,GI50,SNB-75,> 100 µM (inactive)
same,GI50,HOP-62,> 100 µM (inactive)
same,GI50,DU-145,> 100 µM (inactive)
same,GI50,SF-295,> 100 µM (inactive)
same,GI50,CCRF-CEM,> 100 µM (inactive)
same,GI50,SK-MEL-2,> 100 µM (inactive)
same,GI50,SR,> 100 µM (inactive)
same,GI50,ACHN,> 100 µM (inactive)
same,GI50,MDA-MB-231,> 100 µM (inactive)
same,GI50,BT-549,> 100 µM (inactive)
same,GI50,UACC-62,> 100 µM (inactive)
same,GI50,SK-MEL-28,> 100 µM (inactive)
same,GI50,U-251,> 100 µM (inactive)
same,GI50,NCI-H522,> 100 µM (inactive)
same,GI50,NCI-H23,> 100 µM (inactive)
same,GI50,OVCAR-8,> 100 µM (inactive)
same,GI50,LOX IMVI,> 100 µM (inactive)
same,GI50,PC-3,> 100 µM (inactive)
same,GI50,OVCAR-3,> 100 µM (inactive)
same,GI50,UACC-257,> 100 µM (inactive)
same,GI50,HL-60,> 100 µM (inactive)
same,GI50,UO-31,> 100 µM (inactive)
same,GI50,MDA-MB-435,> 100 µM (inactive)
same,GI50,OVCAR-4,> 100 µM (inactive)
same,GI50,COLO 205,> 100 µM (inactive)
same,GI50,T47D,> 100 µM (inactive)
same,GI50,NCI-H460,> 100 µM (inactive)
same,GI50,EKVX,> 100 µM (inactive)
same,GI50,SK-MEL-5,> 100 µM (inactive)
same,GI50,MDA-N,> 100 µM (inactive)
same,GI50,OVCAR-5,> 100 µM (inactive)
same,GI50,HCT-15,> 100 µM
same,GI50,TK-10,> 100 µM (inactive)
same,GI50,SN12C,> 100 µM (inactive)
same,GI50,786-0,> 100 µM (inactive)
same,GI50,CAKI-1,> 100 µM (inactive)
same,GI50,SF-539,> 100 µM (inactive)
